Data taken from patent US8450456B2, “Activating peptide of the synthesis of aquaporins and cosmetic and/or pharmaceutical composition containing it” (ISP Investments Inc., priority 2007, dated 2013).
Ends that are not written are not given here.

Legend:
[1] = tested on: normal human keratinocytes; assay: Protective effect against osmotic shock caused by sorbitol, viability test by MTT; assay type: cell-based; details: sorbitol 250 mM 24 hours, vs non-treated cells
Procedure: The aim of this study is to determine the protective effect of the peptide SEQ ID no4 with respect to normal human keratinocytes subjected to an osmotic shock caused by sorbitol. The evaluation of the cellular state is then carried out by a viability test by MTT.
Normal human keratinocytes in culture were placed in the presence of the peptide SEQ ID no4 at 0.5%, 1% and 3% from a mother solution at 50 ppm, 24 hours before and during the osmotic shock. The hypertonic culture conditions were realized by adding sorbitol at 250 mM to the culture medium for 24 hours. Non-treated controls are carried out.
Cellular viability tests were then carried out by the MTT technique. The MTT agent (3-[4,5-dimethylthiazol-2-yl]-2,5-diphenyltetrazolium bromide) is used to evaluate the cellular viability. The keratinocytes are incubated in a solution containing 0.1 mg/ml MTT (3-[4,5-dimethylthiazol-2-yl]-2,5-diphenyltetrazolium bromide). This compound is absorbed by the living cells, then metabolized by the mitochondrial enzymes (succinate dehydrogenase) in a blue-violet compound, formazan, which is present in the form of insoluble violet crystals in aqueous medium.
The formazan crystals are solubilized in DMSO. They produce an absorbance (O.D.) proportional to the number of living cells present in the sample. Measurements of absorbance at 540 nm are then carried out. […]

[2] = tested on: aquaporin 3; assay: Expression of aquaporin 3 by immunofluorescence in samples of skin ex vivo; assay type: cell-based, human; details: 1% solution of a mother solution at 50 ppm applied topically, 24 hours or 48 hours (0.05 ppm); upper layers of the epidermis; vs non-treated control
Procedure: The aim of this study is to determine the influence of the peptide SEQ ID no5 on the expression of aquaporin 3 in samples of skin ex vivo.
Protocol: Samples of human skin are cultured at the air/liquid interface. A 1% solution of a mother solution at 50 ppm of peptide SEQ ID no4 is applied topically, then the samples are incubated for 24 hours or 48 hours.
These skin samples are then fixed with formaldehyde then enclosed in paraffin. Sections of 2 to 3 μm are then realized. The immunolabeling is carried out after different stages of washing and incubation of these sections. The immunolabeling is carried out by means of a specific polyclonal antibody of aquaporin 3 (anti-aquaporin 3 (C-18): goat polyclonal, sc-9885, Santa Cruz, dilution 1/100th), then a secondary antibody, coupled to a fluorescent marker (alexa-fluor 488 donkey anti-goat Ig G, Molecular Probes, dilution 1/1000th). The skin sections are then examined by epifluorescence microscope (Nikon Eclipse E600 microscope).

[3] = tested on: Biopsies of human skin relieved of their stratum corneum; assay: Protective effect against induced cutaneous dehydration (tape stripping), ex vivo skin biopsies, H&E histology; assay type: cell-based; details: 1% solution of a mother solution at 50 ppm, 24 hours, stripped ex vivo human skin
Procedure: The aim of this study is to determine the protective effect of the peptide SEQ ID no5 with respect to ex vivo epidermis cultures subjected to a stress by an induced cutaneous dehydration.
Biopsies of human skin are relieved of their stratum corneum by stripping by means of an adhesive tape (tape stripping) then held in culture ex vivo, treated with a 1% solution of a mother solution at 50 ppm of peptide SEQ ID no5 for 24 hours. The absence of the stratum corneum induces a high dehydration. Hematoxylin-eosin (H&E) histological sections and stains allow the quality of the cutaneous structures to be evaluated.

[4] = tested on: keratin K10; assay: Expression of keratin K10 by immunofluorescence on sections of human skin; assay type: cell-based; details: 1% solution of a mother solution at 50 ppm applied topically, 24 hours (0.05 ppm); in particular the upper layers of the epidermis
Text: (§1) The aim of this study is to determine the influence of the peptide SEQ ID no 5 on the expression of claudins and of keratin K10. Claudins are the principal transmembrane proteins of the intercellular adhesion structures known as tight-junction, which play a part in the cellular communication and in epidermal cohesion. Keratin K10 is a specific keratin of the differentiated epidermal layers (stratum granulosum) and is involved in the barrier function of the skin. The quantity of protein was evaluated by immunofluorescence on sections of human skin.
(§2) Protocol: Samples of human skin are cultured at the air/liquid interface. A 1% solution of a mother solution at 50 ppm of peptide SEQ ID no5 is applied topically, then the samples are incubated for 24 hours.
(§3) These skin samples are then fixed with formaldehyde, then enclosed in paraffin. Sections of 2 to 3 μm are then realized. The immunolabeling is carried out after different stages of washing and of incubation of these sections.
The immunolabeling of keratin 10 is carried out by means of a specific antibody of keratin 10 (antibody K10: mouse monoclonal, ref: LHP1, Novocastra, dilution 1/50th), then a secondary antibody, coupled to a fluorescent marker (alexa Fluor 488 donkey anti-mouse IgG, A21202, Molecular Probes, 1/1000th).
(§4) The skin sections are then examined by epifluorescence microscope (Nikon Eclipse E600 microscope).

[5] = tested on: claudin-1; assay: Expression of claudin-1 by immunofluorescence on sections of human skin; assay type: cell-based; details: 1% solution of a mother solution at 50 ppm applied topically, 24 hours (0.05 ppm); in particular the upper layers of the epidermis
Text: as §1, §2, §3
The immunolabeling of claudin-1 is carried out by means of a specific antibody of claudin-1 (claudin-1 antibody: rabbit polyclonal, ref: Ab15098, Abcam, dilution 1/200th), then a secondary antibody, coupled with a fluorescent marker (alexa Fluor 488 donkey anti-rabbit IgG, A21206, Molecular Probes, 1/1000th).
as §4

| Substance | viability of cells subjected to the osmotic shock (dose dependence) ([1]; peptide at 0.5%, 1% and 3% of a mother solution at 50 ppm) | increase of viability of cells subjected to the osmotic shock ([1]; peptide at 3% of a mother solution at 50 ppm, 24 hours before and during shock) [%] | aquaporin 3 immunofluorescence [2] | appearance of the keratinocytes of the basal layer (regeneration) [3] | signs of cellular stress and preservation of cutaneous structures (H&E sections) ([3]; vs non-treated biopsies) | keratin K10 immunofluorescence [4] | claudin-1 immunofluorescence [5] |
| --- | --- | --- | --- | --- | --- | --- | --- |
| Asn-Pro-Ala-Arg (NPAR) [SEQ ID no4] | increase in the viability, dependent on dose | 12 | stronger fluorescence | – | – | – | – |
| Asn-Pro-Ala-Arg-NH2 (NPAR-NH2) [SEQ ID no5] | – | – | – | regenerating effect | distinct reduction to the signs of cellular stress and a better preservation of the cutaneous structures | stronger fluorescence | stronger fluorescence |
